In patent US20090036530A1, “Crystalline acid of lipoxin A4 analogs and method of making” (Bayer Schering Pharma Aktiengesellschaft, priority 2006, published 2009):

Experiment: Hygroscopicity study in automated water sorption analyzer (sorption/desorption isotherm)
Type: physicochemical
Method: Polymorph I of the free acid is transformed above 60% relative humidity into the hydrate. It is hygroscopic and adsorbs at 80% relative humidity approx. 8% moisture, which corresponds to a dihydrate of the substance. The hydration is reversible. Below 40% relative humidity a transformation into polymorph I is observed.
Data collection for the hygroscopicity studies was carried out in an automated water sorption analyzer. Approximately 10 mg of the investigated solid state form of the crystalline acid was exposed to a continuous flow of nitrogen with predetermined and constant relative humidity. The rate of sweep gas was set at 200 cm^3/min. For a basic assay, two full cycles (sorption/desorption) were measured at 25° C. The measurement was started at 0% relative humidity in order to remove surface water. Once the constant mass was achieved, the next humidity was automatically set. The water sorption/desorption was investigated in steps of 10% between 0% and 90% relative humidity under the criteria for initiation of the first step as set forth herein. Additionally, the sorption at about 98% relative humidity was investigated. Data was acquired using the DVSWin software.

SMILES | relative humidity above which polymorph I is transformed into the hydrate (25° C., water sorption) | moisture adsorbed (at 80% relative humidity, corresponds to a dihydrate) | hygroscopicity (in words) (sorption isotherm, FIG. 1) | reversibility of the hydration (sorption/desorption cycles) | relative humidity below which transformation into polymorph I is observed (desorption)
O=C(O)COC[C@H](O)[C@H](O)/C=C/C=C/C#C/C=C/[C@H](O)COc1ccc(F)cc1 [polymorph I, 2-((2S,3R,4E,6E,10E,12S)-13-(4-fluorophenoxy)-2,3,12-trihydroxytrideca-4,6,10-trien-8-ynyloxy)acetic acid] | above 60 % relative humidity | approx. 8% | hygroscopic | reversible | 
O=C(O)COC[C@H](O)[C@H](O)/C=C/C=C/C#C/C=C/[C@H](O)COc1ccc(F)cc1 [hydrate, 2-((2S,3R,4E,6E,10E,12S)-13-(4-fluorophenoxy)-2,3,12-trihydroxytrideca-4,6,10-trien-8-ynyloxy)acetic acid] |  |  |  |  | Below 40 % relative humidity
